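Exposure lasted 48 hours, with cells grown in 96-well plates and compounds tested at five concentrations. Abbreviation: GI50, concentration required for 50% inhibition of growth. Definition used: TGI = concentration required for complete inhibition of growth.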
Experiments:
Test in all cases: NCI anticancer screen, dose series, 48 h
DU-145 prostate = system: DU-145 prostate
HS 578T breast = system: HS 578T breast
LOX IMVI melanoma = system: LOX IMVI melanoma
HCC-2998 colon = system: HCC-2998 colon
HCT-15 colon = system: HCT-15 colon
MDA-MB-231 breast = system: MDA-MB-231 breast
SW-620 colon = system: SW-620 colon
OVCAR-5 ovarian = system: OVCAR-5 ovarian
SK-OV-3 ovarian = system: SK-OV-3 ovarian
TK-10 renal = system: TK-10 renal
KM12 colon = system: KM12 colon
CCRF-CEM leukemia = system: CCRF-CEM leukemia
HL-60(TB) leukemia = system: HL-60(TB) leukemia
SNB-75 CNS = system: SNB-75 CNS
NCI-H460 lung = system: NCI-H460 lung
EKVX NSCLC = system: EKVX NSCLC
UACC-257 melanoma = system: UACC-257 melanoma
SF-295 CNS = system: SF-295 CNS
OVCAR-8 ovarian = system: OVCAR-8 ovarian
UACC-62 melanoma = system: UACC-62 melanoma
PC-3 prostate = system: PC-3 prostate
ACHN renal = system: ACHN renal
786-0 renal = system: 786-0 renal
SK-MEL-28 melanoma = system: SK-MEL-28 melanoma
OVCAR-4 ovarian = system: OVCAR-4 ovarian
NCI-H522 lung = system: NCI-H522 lung
A549 NSCLC = system: A549 NSCLC
K-562 leukemia = system: K-562 leukemia
RXF 393 renal = system: RXF 393 renal
T-47D breast = system: T-47D breast
RPMI-8226 leukemia = system: RPMI-8226 leukemia
M14 melanoma = system: M14 melanoma
HOP-92 NSCLC = system: HOP-92 NSCLC
SK-MEL-5 melanoma = system: SK-MEL-5 melanoma
OVCAR-3 ovarian = system: OVCAR-3 ovarian
MDA-MB-435 = system: MDA-MB-435
HCT-116 colon = system: HCT-116 colon
CAKI-1 renal = system: CAKI-1 renal
SN12C renal = system: SN12C renal
SK-MEL-2 melanoma = system: SK-MEL-2 melanoma
COLO 205 colon = system: COLO 205 colon
NCI/ADR-RES ovarian = system: NCI/ADR-RES ovarian
UO-31 renal = system: UO-31 renal
IGROV1 ovarian = system: IGROV1 ovarian
SNB-19 CNS = system: SNB-19 CNS
U251 CNS = system: U251 CNS
HOP-62 NSCLC = system: HOP-62 NSCLC

Structure (SMILES): COc1cc2c(c(OC)c1OC)-c1ncc3cc(OC)c(OC)c(OC)c3c1C2
- GI50 (DU-145 prostate): 26.6 µM
- TGI (DU-145 prostate): > 100 µM
- GI50 (HS 578T breast): 29.7 µM
- TGI (HS 578T breast): 65.6 µM
- GI50 (LOX IMVI melanoma): 15.9 µM
- TGI (LOX IMVI melanoma): 29.9 µM
- GI50 (HCC-2998 colon): 16.4 µM
- TGI (HCC-2998 colon): 30.7 µM
- GI50 (HCT-15 colon): 23.4 µM
- TGI (HCT-15 colon): 83.5 µM
- GI50 (MDA-MB-231 breast): 21.3 µM
- TGI (MDA-MB-231 breast): 70.8 µM
- GI50 (SW-620 colon): 32.4 µM
- TGI (SW-620 colon): 98.7 µM
- GI50 (OVCAR-5 ovarian): 22.5 µM
- TGI (OVCAR-5 ovarian): > 100 µM
- GI50 (SK-OV-3 ovarian): 47.5 µM
- TGI (SK-OV-3 ovarian): > 100 µM
- GI50 (TK-10 renal): 23.3 µM
- TGI (TK-10 renal): 80.6 µM
- GI50 (KM12 colon): 17.8 µM
- TGI (KM12 colon): 63 µM
- GI50 (CCRF-CEM leukemia): > 100 µM
- TGI (CCRF-CEM leukemia): > 100 µM
- GI50 (HL-60(TB) leukemia): 1.92 µM
- TGI (HL-60(TB) leukemia): 46 µM
- GI50 (SNB-75 CNS): 54.5 µM
- TGI (SNB-75 CNS): > 100 µM
- GI50 (NCI-H460 lung): 30 µM
- TGI (NCI-H460 lung): 78.2 µM
- GI50 (EKVX NSCLC): 23.1 µM
- TGI (EKVX NSCLC): 66.7 µM
- GI50 (UACC-257 melanoma): 12.1 µM
- TGI (UACC-257 melanoma): 27.2 µM
- GI50 (SF-295 CNS): 18.7 µM
- TGI (SF-295 CNS): 42.4 µM
- GI50 (OVCAR-8 ovarian): 6.09 µM
- TGI (OVCAR-8 ovarian): 34.7 µM
- GI50 (UACC-62 melanoma): 17.4 µM
- TGI (UACC-62 melanoma): 34 µM
- GI50 (PC-3 prostate): 44.2 µM
- TGI (PC-3 prostate): > 100 µM
- GI50 (ACHN renal): 24 µM
- TGI (ACHN renal): 78.7 µM
- GI50 (786-0 renal): 35.9 µM
- TGI (786-0 renal): > 100 µM
- GI50 (SK-MEL-28 melanoma): 25.4 µM
- TGI (SK-MEL-28 melanoma): 78.1 µM
- GI50 (OVCAR-4 ovarian): 44.5 µM
- TGI (OVCAR-4 ovarian): > 100 µM
- GI50 (NCI-H522 lung): 16.1 µM
- TGI (NCI-H522 lung): 43.2 µM
- GI50 (A549 NSCLC): 20.3 µM
- TGI (A549 NSCLC): > 100 µM
- GI50 (K-562 leukemia): 15.3 µM
- TGI (K-562 leukemia): 50.8 µM
- GI50 (RXF 393 renal): 11.2 µM
- TGI (RXF 393 renal): 33.1 µM
- GI50 (T-47D breast): 50.4 µM
- TGI (T-47D breast): > 100 µM
- GI50 (RPMI-8226 leukemia): > 100 µM
- TGI (RPMI-8226 leukemia): > 100 µM
- GI50 (M14 melanoma): 50.7 µM
- TGI (M14 melanoma): > 100 µM
- GI50 (HOP-92 NSCLC): 52.6 µM
- TGI (HOP-92 NSCLC): > 100 µM
- GI50 (SK-MEL-5 melanoma): 15.5 µM
- TGI (SK-MEL-5 melanoma): 29.5 µM
- GI50 (OVCAR-3 ovarian): 19.1 µM
- TGI (OVCAR-3 ovarian): 46.3 µM
- GI50 (MDA-MB-435): 20.8 µM
- TGI (MDA-MB-435): 51 µM
- GI50 (HCT-116 colon): 33.5 µM
- TGI (HCT-116 colon): > 100 µM
- GI50 (CAKI-1 renal): 22.5 µM
- TGI (CAKI-1 renal): 74.3 µM
- GI50 (SN12C renal): 17.6 µM
- TGI (SN12C renal): 73.7 µM
- GI50 (SK-MEL-2 melanoma): 22.9 µM
- TGI (SK-MEL-2 melanoma): 56.8 µM
- GI50 (COLO 205 colon): 25.8 µM
- TGI (COLO 205 colon): 50.3 µM
- GI50 (NCI/ADR-RES ovarian): 12.1 µM
- TGI (NCI/ADR-RES ovarian): 51.2 µM
- GI50 (UO-31 renal): 20.2 µM
- TGI (UO-31 renal): > 100 µM
- GI50 (IGROV1 ovarian): 25.2 µM
- TGI (IGROV1 ovarian): 63.2 µM
- GI50 (SNB-19 CNS): 28.9 µM
- TGI (SNB-19 CNS): 94.2 µM
- GI50 (U251 CNS): 33 µM
- TGI (U251 CNS): > 100 µM
- GI50 (HOP-62 NSCLC): 35.4 µM
- TGI (HOP-62 NSCLC): 66.5 µM
